Measured values: BindingDB's records for doi:10.1007/s10822-022-00478-x (Roche Innovation Center Basel, F. Hoffmann-La Roche Ltd., 2022)

biological target: cAMP and cAMP-inhibited cGMP 3',5'-cyclic phosphodiesterase 10A (Homo sapiens, UniProt Q9Y233); experiment: PDE10A assay
Summary of the method: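 Scintillation proximity readout of [3H]cGMP hydrolysis (50 nM final substrate, 15 min) by 2 ng/well human PDE10A after 15 min compound preincubation at RT, pH 7.5 with MgCl2. Four-parameter logistic fit gave IC50, reported as pIC50.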

Row | SMILES | IC50 [nM]
1 | O=C(Nc1cn(Cc2ccccn2)cn1)c1nc(C2CC2)ccc1Nc1cncnc1 [Roche-Dataset for PDE10A, Compound 1036] | 110
2 | Cc1cc(C)n2nc(CCc3nc(N(C)C)nn3C)nc2n1 [Roche-Dataset for PDE10A, Compound 1140] | 535
3 | Cc1ccc2nc(/C=C/c3nc(N4CCCC4)nn3C)nn2c1C [Roche-Dataset for PDE10A, Compound 375] | 8.73
4 | O=C(Nc1cnccc1Cl)c1nc(C2CC2)ccc1Nc1cncnc1 [Roche-Dataset for PDE10A, Compound 995] | 21
5 | Cc1ncc(C)n2nc(CCc3nc(N)nn3C)nc12 [Roche-Dataset for PDE10A, Compound 1150] | 3930
6 | O=C(Nc1cc(C2CCCC2)n[nH]1)c1nc(C2CC2)ccc1Nc1cncnc1 [Roche-Dataset for PDE10A, Compound 653] | 375
7 | O=C(NCC1(c2ccccc2)CCOCC1)c1nc(C2CC2)cnc1Nc1cncnc1 [Roche-Dataset for PDE10A, Compound 924] | 1160
8 | CN(C)C(=O)c1cnn(C)c1C(=O)N[C@@H]1CCn2c(nc(-c3ccccc3)c2Cl)C1 [Roche-Dataset for PDE10A, Compound 221] | 30
9 | Cc1ncc(C)n2nc(CCc3nc(N(C)CC4CC4)nn3C)nc12 [Roche-Dataset for PDE10A, Compound 841] | 117
10 | Cn1cc(-c2ccccc2)nc1CCc1nc(N2CCOCC2)c2cc(Cl)ccc2n1 [Roche-Dataset for PDE10A, Compound 54] | 1.08
11 | O=C(Nc1cc(-c2ccccn2)nn1CC(F)(F)F)c1nc(C2CC2)ccc1Nc1cncnc1 [US8470820, 22] | 2.54
12 | O=C(NCCC1CCOCC1)c1nc(C2CC2)cnc1Nc1cncnc1 [Roche-Dataset for PDE10A, Compound 915] | 1470
13 | O=C(Nc1ccn([C@]23C[C@H]4C[C@H](C[C@H](C4)C2)C3)n1)c1nc(C2CC2)ccc1Nc1cncnc1 [Roche-Dataset for PDE10A, Compound 537] | 12
14 | Cc1cc(-n2nc(CCc3nc4c(C(F)(F)F)cc(Cl)c(C)n4n3)nc2N2CCCC2)ccn1 [Roche-Dataset for PDE10A, Compound 40] | 9.83
15 | Cn1cc(-c2ccccc2)nc1CCc1nc(-c2ccccc2)cc(=O)[nH]1 [Roche-Dataset for PDE10A, Compound 94] | 987
16 | CNC(=O)c1cc2[nH]c(-c3ccccc3)nc2cc1NC(=O)c1cc(C)n[nH]1 [Roche-Dataset for PDE10A, Compound 430] | 355
17 | O=C(Nc1ccn2nc(-c3ccccc3)nc2c1)c1ccc(Cl)cn1 [Roche-Dataset for PDE10A, Compound 778] | 10000
18 | CN(C(=O)c1cnn(C)c1C(=O)N[C@@H]1CCn2cc(-c3ccccc3OC(F)F)nc2C1)C1CC1 [Roche-Dataset for PDE10A, Compound 192] | 7.98
19 | CCNC(=O)c1c(NC(=O)c2c(C(=O)N3CCC3)cnn2C)cnn1CC [Roche-Dataset for PDE10A, Compound 1076] | 1920
20 | Cn1ncc(C(=O)N2CCC2)c1C(=O)N[C@@H]1CCn2c(nc(-c3ccccc3)c2Cl)C1 [Roche-Dataset for PDE10A, Compound 225] | 6.96
21 | Cn1cc(-c2ccccc2)nc1CCc1nc2c(cnn2C)c(=O)[nH]1 [Roche-Dataset for PDE10A, Compound 854] | 50
22 | O=C1c2ccccc2C(=O)N1CCc1nc(-c2ccccn2)no1 [Roche-Dataset for PDE10A, Compound 490] | 5450
23 | CC(C)c1cc(NC(=O)c2c(C(=O)N3CCC3)cnn2C)[nH]n1 [Roche-Dataset for PDE10A, Compound 1070] | 10000

Row | SMILES | IC50 [nM]
24 | Cn1cc(-c2ccccc2)nc1/C=C/c1cc(Cl)nc(Cl)n1 [Roche-Dataset for PDE10A, Compound 543] | 2310
25 | CN(C(=O)c1c(C(=O)N2CCC2)cnn1C)c1ccn2nc(-c3ccccc3)nc2c1 [Roche-Dataset for PDE10A, Compound 1062] | 1450
26 | Cn1ncc(C(=O)N2CCOCC2)c1C(=O)N[C@H]1CCn2cc(-c3ccccc3Cl)nc2C1 [Roche-Dataset for PDE10A, Compound 1009] | 436
27 | CNC(=O)c1cc(NC(C)=O)ccc1NC(=O)c1nc(C2CC2)cnc1Nc1cncnc1 [US8703768, 274] | 0.38
28 | Cn1cc(-c2ccncc2)c(C(=O)Nc2cc(-c3ccccn3)nn2C)n1 [Roche-Dataset for PDE10A, Compound 1102] | 124
29 | CCOC(=O)c1cnn(C)c1C(=O)Nc1ccn2nc(-c3ccnc(F)c3)nc2c1 [Roche-Dataset for PDE10A, Compound 280] | 790
30 | O=C(Nc1ccnn1S(=O)(=O)C(F)(F)F)c1nc(C2CC2)ccc1Nc1cncnc1 [Roche-Dataset for PDE10A, Compound 1004] | 30
31 | Cc1ccc2c(c1)c(=O)n(C)c1c(C)nc(-c3ccccc3Cl)n21 [Roche-Dataset for PDE10A, Compound 948] | 27
32 | Cn1cc(-c2ccccc2)nc1CCc1nc2cccc(Cl)c2c(=O)[nH]1 [Roche-Dataset for PDE10A, Compound 52] | 122
33 | Cc1ncc(C)n2nc(/C=C/c3nc(N4C[C@@H]5C[C@H]6CN(C(=O)OC(C)(C)C)C[C@]65C4)nn3C)nc12 [Roche-Dataset for PDE10A, Compound 1066] | 6130
34 | Cn1nc(N2CCCC2)nc1/C=C/c1nc(N2CCCC2)nn1C [Roche-Dataset for PDE10A, Compound 550] | 188
35 | O=C(Nc1ccc(-n2ccccc2=O)cc1)c1nc(C2CC2)ccc1Nc1cncnc1 [Roche-Dataset for PDE10A, Compound 545] | 20
36 | CCN(C)C(=O)c1cnn(C)c1C(=O)N[C@@H]1CCn2cc(-c3cccc(OC)c3)nc2C1 [Roche-Dataset for PDE10A, Compound 136] | 1730
37 | COc1ccc(-c2nnc(NC(=O)c3nc(C4CC4)ccc3Nc3cncnc3)s2)cc1 [US8470820, 44] | 1790
38 | CCOC(=O)c1cnn(C)c1C(=O)Nc1ccn2nc(N(C)CC)nc2c1 [Roche-Dataset for PDE10A, Compound 502] | 359
39 | CCn1nccc1C(=O)Nc1cc2nc(-c3ccccc3)[nH]c2cc1C(=O)NC [Roche-Dataset for PDE10A, Compound 482] | 11
40 | CC(C)Oc1cncc(NC(=O)c2nc(C3CC3)cnc2Nc2cncnc2)c1 [Roche-Dataset for PDE10A, Compound 816] | 63
41 | Cc1ncc(C)n2nc(CCc3nc(Br)nn3C)nc12 [Roche-Dataset for PDE10A, Compound 1131] | 2480
42 | CCOC(=O)c1cnn(C)c1C(=O)Nc1ccn2nc(-c3cccnc3F)nc2c1 [Roche-Dataset for PDE10A, Compound 264] | 183
43 | Cn1ncc(C(=O)N2CCOCC2)c1C(=O)Nc1ccn2nc(-n3ccnc3)nc2c1 [Roche-Dataset for PDE10A, Compound 496] | 104
44 | Cn1ncc(C(=O)N2CCC2)c1C(=O)Nc1ccc2sc(-c3ccccc3)nc2c1 [Roche-Dataset for PDE10A, Compound 174] | 0.77
45 | CCN(C)C(=O)c1cnn(C)c1C(=O)Nc1ccn2cc(-c3cccc(OCCO)c3)nc2n1 [Roche-Dataset for PDE10A, Compound 39] | 8.81
46 | O=C(c1nc(C2CC2)cnc1Nc1cncnc1)N1CCC(O)(Cc2ccccc2)CC1 [Roche-Dataset for PDE10A, Compound 1044] | 10000
